Molecular target: T1, SlitOR5/SlitOrco (Spodoptera littoralis, UniProt A0A5J6NJF6)
T1 construct: full-length open reading frames (SlitOr5 1191 bp) in pCS2+, cRNAs co-injected in Xenopus oocytes; heteromer with co-receptor Orco; with Odorant receptor coreceptor
T1 sequence (A0A5J6NJF6 1-397): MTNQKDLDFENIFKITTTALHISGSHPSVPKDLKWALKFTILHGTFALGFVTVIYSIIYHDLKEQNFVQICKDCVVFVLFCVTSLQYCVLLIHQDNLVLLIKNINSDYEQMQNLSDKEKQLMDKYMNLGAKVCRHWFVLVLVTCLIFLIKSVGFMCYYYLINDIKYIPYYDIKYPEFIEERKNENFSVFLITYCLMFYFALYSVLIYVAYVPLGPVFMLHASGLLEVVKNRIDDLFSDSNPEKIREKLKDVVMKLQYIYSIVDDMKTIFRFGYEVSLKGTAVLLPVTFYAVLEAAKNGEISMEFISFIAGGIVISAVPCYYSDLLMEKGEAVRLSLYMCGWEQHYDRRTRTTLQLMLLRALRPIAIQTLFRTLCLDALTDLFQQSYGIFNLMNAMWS
T1 sequence (B6C755 1-473 partner): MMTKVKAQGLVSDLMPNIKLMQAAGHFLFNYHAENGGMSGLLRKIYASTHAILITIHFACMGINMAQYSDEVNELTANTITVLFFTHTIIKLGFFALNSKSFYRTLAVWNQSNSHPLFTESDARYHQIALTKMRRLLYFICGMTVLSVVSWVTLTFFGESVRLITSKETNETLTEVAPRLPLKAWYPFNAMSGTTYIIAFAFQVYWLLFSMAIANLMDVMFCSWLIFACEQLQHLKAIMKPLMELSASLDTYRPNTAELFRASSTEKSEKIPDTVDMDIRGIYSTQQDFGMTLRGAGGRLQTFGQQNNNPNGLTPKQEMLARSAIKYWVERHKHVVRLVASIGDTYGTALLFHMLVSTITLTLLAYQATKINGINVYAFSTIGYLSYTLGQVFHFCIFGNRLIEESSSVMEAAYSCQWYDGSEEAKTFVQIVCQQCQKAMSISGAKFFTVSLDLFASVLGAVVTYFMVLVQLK
Experiment: two-electrode voltage clamp, inward current in Xenopus oocytes
Type: cell-based

EC50: 171 nM
SMILES: CC/C=C/C=C\CCCCCCCCOC(C)=O [(Z,E)-9,11-14:OAc, (Z,E)-9,11-tetradecadienyl acetate]
